Patent US9328083B2, “2-aminated methylene or 2-esterified methylene tanshinone derivatives, and preparation method and application thereof” (HANGZHOU BENSHENG PHARMACEUTICAL CO., LTD., priority 2011, dated 2016)
≈ marks a conversion by molar mass, not a printed value.

Tests used:
[1] = test system: RPMI8226 (multiple myeloma); assay: MTT growth inhibition of multiple myeloma cells, 72 h; assay type: cell-based, human; details: Homo sapiens, RPMI 8226, 72 h; for IC50: read-out: IC50; for IC90: read-out: IC90
Experimental: Myeloma cell lines: RPMI8226 (multiple myeloma), purchased from Fuxiang Bio-tech Co. Ltd., Shanghai, China.
(§1) The standard sample of tanshinone I (TA) and the 2-aminated methylene or 2-esterified methylene tanshinone I derivatives of the present invention are sufficiently dissolved with dimethylsulfoxide to produce a stock solution of 10 mg/mL, which is refrigerated at 4° C. and stored in dark, and is diluted with a cell culture medium to the desired concentration prior to experimentation.
(§2) Obtaining 6000 well-growing myeloma cells as above and inoculating them into wells of a 96-well cell culture plate. The culture medium is the 1640 cell culture medium containing 10% fetal bovine serum. After adding the 2-aminated methylene or 2-esterified methylene tanshinone I derivatives of different concentrations and mixing uniformly, placing the plate in a carbon dioxide cell incubator (5% CO2) at 37° C. and incubated for 72 hours. Then the viable cell concentration is determined by MTT method.

[2] = test system: K562/adr (drug-resistant, chronic myeloid leukemia, CML); assay: MTT growth inhibition of leukemia cells, 72 h; assay type: cell-based, human; details: Homo sapiens, K562/Adr; for IC50: read-out: IC50; for IC90: read-out: IC90
Text: (§3) Leukemia cell lines: leukemia cell lines: K562/adr (drug-resistant, chronic myeloid leukemia, CML), NB4 (acute promyelocytic leukemia, AML), Kasumi-1 (acute myeloid leukemia M2 type, AML-M2), and Jurkat (acute lymphoblastic leukemia, ALL), all of which are donated by Cancer Research Institute of Zhejiang University, China; and H9 (acute lymphoblastic leukemia, ALL), which is purchased from China Center for Type Culture Collection (CCTCC).
as §1
as §2, with “leukemia” for “myeloma”, “cells” for “cells as above”, “RPMI-1640” for “1640”, “adding on the second day” for “adding”

[3] = test system: Jurkat (acute lymphoblastic leukemia, ALL); assay: MTT growth inhibition of leukemia cells, 72 h; assay type: cell-based, human; details: Homo sapiens, 72 h; for IC50: read-out: IC50; for IC90: read-out: IC90
Text: as §3, §1
as §2, with “leukemia” for “myeloma”, “cells” for “cells as above”, “RPMI-1640” for “1640”, “adding on the second day” for “adding”

[4] = test system: Kasumi-1 (acute myeloid leukemia M2 type, AML-M2); assay: MTT growth inhibition of leukemia cells, 72 h; assay type: cell-based, human; details: Homo sapiens, Kasumi-1, 72 h; for IC50: read-out: IC50; for IC90: read-out: IC90
Text: as §3, §1
as §2, with “leukemia” for “myeloma”, “cells” for “cells as above”, “RPMI-1640” for “1640”, “adding on the second day” for “adding”

[5] = test system: NB4 (acute promyelocytic leukemia, AML); assay: MTT growth inhibition of leukemia cells, 72 h; assay type: cell-based, human; details: Homo sapiens, NB4, 72 h; for IC50: read-out: IC50; for IC90: read-out: IC90
Text: as §3, §1
as §2, with “leukemia” for “myeloma”, “cells” for “cells as above”, “RPMI-1640” for “1640”, “adding on the second day” for “adding”

[6] = test system: H9 (acute lymphoblastic leukemia, ALL); assay: MTT growth inhibition of leukemia cells, 72 h; assay type: cell-based, human; details: Homo sapiens, H9, 72 h; for IC50: read-out: IC50; for IC90: read-out: IC90
Text: as §3, §1
as §2, with “leukemia” for “myeloma”, “cells” for “cells as above”, “RPMI-1640” for “1640”, “adding on the second day” for “adding”

A549 (human lung cancer) = assay: MTT growth inhibition of human solid tumor cells, 72 h; assay type: cell-based; details: Homo sapiens, A549, 72 h; for IC50: read-out: IC50; for IC90: read-out: IC90
Experimental: (§4) Hep-2 (laryngeal carcinoma), A549 (human lung cancer), CaES-17 (esophageal cancer cell), PC-3 (prostate cancer), CNE (nasopharyngeal carcinoma cell), and SK-OV-3 (ovarian cancer cell), all of which are purchased from China Center For Type Culture Collection; RKO (human colon adenocarcinoma cell), MGC 803 (human gastric cancer cell), MG63 (osteosarcoma) and U87 MG (malignant glioma cell), all of which are purchased from Fuxiang Bio-tech Co. Ltd., Shanghai, China; PANC-1 (pancreatic cancer), Hep G2 (human liver cancer cell), Becap37 (human breast cancer cell) and Hela (human cervical cancer cell), all of which are donated by Cancer Research Institute of Zhejiang University, China.
as §1
(§5) Obtaining 4000 well-growing human solid tumor cells and inoculating them into wells of a 96-well cell culture plate. The culture medium is DMEM High Glucose cell culture medium containing 10% fetal bovine serum. The plate is placed in a carbon dioxide cell incubator (5% CO2) at 37° C. and incubated for 24 hours. After adding the 2-aminated methylene or 2-esterified methylene tanshinone I derivatives of different concentrations and mixing uniformly, the plate is placed in a carbon dioxide cell incubator (5% CO2) at 37° C. and incubated for 72 hours. Then the viable cell concentration is determined by the MTT method.

[7] = test system: MGC 803 (human gastric cancer cell); assay: as above; assay type: cell-based; details: Homo sapiens, MGC-803, 72 h; for IC50: read-out: IC50; for IC90: read-out: IC90
Experimental: as §4, §1, §5

[8] = test system: PANC-1 (pancreatic cancer); assay: as above; assay type: cell-based; details: Homo sapiens, PANC-1, 72 h; for IC50: read-out: IC50; for IC90: read-out: IC90
Experimental: as §4, §1, §5

[9] = test system: SK-OV-3 (ovarian cancer cell); assay: as above; assay type: cell-based; details: Homo sapiens, SK-OV-3, 72 h; for IC50: read-out: IC50; for IC90: read-out: IC90
Experimental: as §4, §1, §5

[10] = test system: Hep-2 (laryngeal carcinoma); assay: as above; assay type: cell-based; details: Homo sapiens, HEp-2, 72 h; for IC50: read-out: IC50; for IC90: read-out: IC90
Experimental: as §4, §1, §5

PC-3 (prostate cancer) = assay: as above; assay type: cell-based; details: Homo sapiens, PC-3, 72 h; for IC50: read-out: IC50; for IC90: read-out: IC90
Experimental: as §4, §1, §5

[11] = test system: U87 MG (malignant glioma cell); assay: as above; assay type: cell-based; details: Homo sapiens, U-87 MG, U87-MG, 72 h; for IC50: read-out: IC50; for IC90: read-out: IC90
Experimental: as §4, §1, §5

[12] = test system: Hep G2 (human liver cancer cell); assay: as above; assay type: cell-based; details: Homo sapiens, HepG2, Hep G2, 72 h; for IC50: read-out: IC50; for IC90: read-out: IC90
Experimental: as §4, §1, §5

MG63 (osteosarcoma) = assay: as above; assay type: cell-based; details: Homo sapiens, MG-63, 72 h; for IC50: read-out: IC50; for IC90: read-out: IC90
Experimental: as §4, §1, §5

[13] = test system: Hela (human cervical cancer cell); assay: as above; assay type: cell-based; details: Homo sapiens, HeLa, 72 h; for IC50: read-out: IC50; for IC90: read-out: IC90
Experimental: as §4, §1, §5

[14] = test system: CNE (nasopharyngeal carcinoma cell); assay: as above; assay type: cell-based; details: Homo sapiens; for IC50: read-out: IC50; for IC90: read-out: IC90
Experimental: as §4, §1, §5

[15] = test system: RKO (human colon adenocarcinoma cell); assay: as above; assay type: cell-based; details: Homo sapiens; for IC50: read-out: IC50; for IC90: read-out: IC90
Experimental: as §4, §1, §5

[16] = test system: Becap37 (human breast cancer cell); assay: as above; assay type: cell-based; details: Homo sapiens, Becap-37, 72 h; for IC50: read-out: IC50; for IC90: read-out: IC90
Experimental: as §4, §1, §5

[17] = test system: CaES-17 (esophageal cancer cell); assay: as above; assay type: cell-based; details: Homo sapiens, CaEs17, CaEs-17, 72 h; for IC50: read-out: IC50; for IC90: read-out: IC90
Experimental: as §4, §1, §5

Row | IC50 [1] [µg/mL] | IC90 [1] [µg/mL] | IC50 [2] [µg/mL] | IC90 [2] [µg/mL] | IC50 [3] [µg/mL] | IC90 [3] [µg/mL] | IC50 [4] [µg/mL] | IC90 [4] [µg/mL] | IC50 [5] [µg/mL] | IC90 [5] [µg/mL] | IC50 [6] [µg/mL] | IC90 [6] [µg/mL] | IC50 (A549 (human lung cancer)) [µg/mL] | IC90 (A549 (human lung cancer)) [µg/mL] | IC50 [7] [µg/mL] | IC90 [7] [µg/mL] | IC50 [8] [µg/mL] | IC90 [8] [µg/mL] | IC50 [9] [µg/mL] | IC90 [9] [µg/mL] | Compound | also measured
1 | 1.82 (≈ 4.49 µM) | 3.92 (≈ 9.67 µM) | 0.61 (≈ 1.5 µM) | 1.61 (≈ 3.97 µM) | 0.56 (≈ 1.38 µM) | 0.99 (≈ 2.44 µM) | 0.31 (≈ 0.765 µM) | 1.28 (≈ 3.16 µM) | 0.73 (≈ 1.8 µM) | 1.9 (≈ 4.69 µM) | 0.57 (≈ 1.41 µM) | 0.9 (≈ 2.22 µM) | 2.76 (≈ 6.81 µM) | 6.41 (≈ 15.8 µM) | 2.47 (≈ 6.09 µM) | 8.33 (≈ 20.5 µM) | 0.74 (≈ 1.83 µM) | 4.95 (≈ 12.2 µM) | 5.83 (≈ 14.4 µM) | 9.47 (≈ 23.4 µM) | CC(=O)OCCN(C)Cc1oc2c(c1C)C(=O)C(=O)c1c-2ccc2c(C)cccc12 [BS-TA-61] | IC50 [10]: 0.84 µg/mL (≈ 2.07 µM); IC90 [10]: 2.52 µg/mL (≈ 6.22 µM); IC50 (PC-3 (prostate cancer)): 2.65 µg/mL (≈ 6.54 µM); IC90 (PC-3 (prostate cancer)): 6.49 µg/mL (≈ 16 µM); IC50 [11]: 2.59 µg/mL (≈ 6.39 µM); IC90 [11]: 3.87 µg/mL (≈ 9.54 µM); IC50 [12]: 2.95 µg/mL (≈ 7.28 µM); IC90 [12]: 9.75 µg/mL (≈ 24 µM); IC50 (MG63 (osteosarcoma)): 2.34 µg/mL (≈ 5.77 µM); IC90 (MG63 (osteosarcoma)): 6.79 µg/mL (≈ 16.7 µM); IC50 [13]: 1.49 µg/mL (≈ 3.67 µM); IC90 [13]: 4 µg/mL (≈ 9.87 µM); IC50 [14]: 2.8 µg/mL (≈ 6.91 µM); IC90 [14]: 7.2 µg/mL (≈ 17.8 µM); IC50 [15]: 0.46 µg/mL (≈ 1.13 µM); IC90 [15]: 6.98 µg/mL (≈ 17.2 µM); IC50 [16]: 2.54 µg/mL (≈ 6.26 µM); IC90 [16]: 4.92 µg/mL (≈ 12.1 µM); IC50 [17]: 3 µg/mL (≈ 7.4 µM); IC90 [17]: 5.07 µg/mL (≈ 12.5 µM)
2 | 2.64 (≈ 5.9 µM) | 7.68 (≈ 17.2 µM) | 0.78 (≈ 1.74 µM) | 3.48 (≈ 7.78 µM) | 0.89 (≈ 1.99 µM) | 3.47 (≈ 7.75 µM) | 0.42 (≈ 0.938 µM) | 0.97 (≈ 2.17 µM) | 1.42 (≈ 3.17 µM) | 3.85 (≈ 8.6 µM) | 0.6 (≈ 1.34 µM) | 1.8 (≈ 4.02 µM) | 3.3 (≈ 7.37 µM) | 21.4 (≈ 47.7 µM) | 6.3 (≈ 14.1 µM) | 14.1 (≈ 31.4 µM) | 1.42 (≈ 3.17 µM) | 16 (≈ 35.8 µM) | > 16 | > 16 | Cc1c(CN(C)CCOC(=O)C(C)(C)C)oc2c1C(=O)C(=O)c1c-2ccc2c(C)cccc12 [BS-TA-62] | IC50 [10]: 6.81 µg/mL (≈ 15.2 µM); IC90 [10]: > 16 µg/mL; IC50 (PC-3 (prostate cancer)): 3.21 µg/mL (≈ 7.17 µM); IC90 (PC-3 (prostate cancer)): 8.76 µg/mL (≈ 19.6 µM); IC50 [11]: 3.2 µg/mL (≈ 7.15 µM); IC90 [11]: 7.65 µg/mL (≈ 17.1 µM); IC50 [12]: 5.41 µg/mL (≈ 12.1 µM); IC90 [12]: 22.6 µg/mL (≈ 50.4 µM); IC50 (MG63 (osteosarcoma)): 4.88 µg/mL (≈ 10.9 µM); IC90 (MG63 (osteosarcoma)): > 16 µg/mL; IC50 [13]: 9.26 µg/mL (≈ 20.7 µM); IC90 [13]: > 16 µg/mL; IC50 [14]: 1.8 µg/mL (≈ 4.02 µM); IC90 [14]: 18 µg/mL (≈ 40.2 µM); IC50 [15]: 0.47 µg/mL (≈ 1.05 µM); IC90 [15]: > 16 µg/mL; IC50 [16]: 5.04 µg/mL (≈ 11.3 µM); IC90 [16]: 11.6 µg/mL (≈ 26 µM); IC50 [17]: 6.33 µg/mL (≈ 14.1 µM); IC90 [17]: 11.8 µg/mL (≈ 26.4 µM)
